Test results: ChEMBL document CHEMBL4622979, “Non-rigid Diarylmethyl Analogs of Baloxavir as Cap-Dependent Endonuclease Inhibitors of Influenza Viruses” (J Med Chem, 2020)
Calls of active or inactive are those of the source. No cut-off for these calls is given here.

Tests used:
[1] = Stability in human liver S9 fraction assessed as parent compound remaining at 1 uM measured after 4 hrs by LC-MS/MS analysis; type: ADME, subcellular; settings: read-out: Stability
[2] = Stability in rat liver S9 fraction assessed as parent compound remaining at 1 uM measured after 4 hrs by LC-MS/MS analysis; type: ADME, subcellular; settings: read-out: Stability
[3] = Stability in mouse liver S9 fraction assessed as parent compound remaining at 1 uM measured after 4 hrs by LC-MS/MS analysis; type: ADME, subcellular; settings: read-out: Stability
HEK-293T [4] = test: Inhibition of CEN polymerase activity in Influenza A/California/04/2009 (H1N1)pdm09 NP/PA/PB1/PB2 complex transfected in HEK293T cells co-expressing beta-galactosidase at 100 nM preincubated for 3 hrs followed by viral gene transfection and measured after 24 hrs by ONPG substrate based luciferase reporter gene mini-replicon assay relative to control; type: cell-based; settings: Influenza A virus (A/California/04/2009(H1N1))
HEK-293T [5] = test: Inhibition of CEN polymerase activity in Influenza A/California/04/2009 (H1N1)pdm09 NP/PA/PB1/PB2 complex transfected in HEK293T cells co-expressing beta-galactosidase at 25 nM preincubated for 3 hrs followed by viral gene transfection and measured after 24 hrs by ONPG substrate based luciferase reporter gene mini-replicon assay relative to control; type: cell-based; settings: Influenza A virus (A/California/04/2009(H1N1))
Influenza A virus [6] = test: Antiviral activity against Influenza A/California/04/2009 (H1N1)pdm09 infected in MDCK cells assessed as protection against virus-induced cell death by CellTiter-Glo assay; type: functional, organism-based; settings: A/California/04/2009(H1N1) pdm09, MDCK
[7] = Cytotoxicity against MDCK cells assessed as reduction in cell viability by CellTiter-Glo assay; type: cell-based, Canis lupus familiaris; settings: dog
[8] = Selectivity index, ratio of CC50 for MDCK cells to EC50 for Influenza A/California/04/2009 (H1N1)pdm09 virus infected in MDCK cells; type: toxicity, cell-based; settings: dog, read-out: Ratio CC50/EC50
[9] = Oral bioavailability in CD1 mouse at 10 mg/kg administered as single dose by LC-MS/MS analysis; type: ADME, organism-based; settings: in vivo
[10] = Cmax in CD1 mouse plasma at 10 mg/kg, po administered as single dose by LC-MS/MS analysis; type: ADME, organism-based; design: dose 10 mg/kg, route oral
[11] = AUClast in CD1 mouse plasma at 10 mg/kg, po administered as single dose by LC-MS/MS analysis; type: ADME, organism-based; design: dose 10 mg/kg, route oral, time 0 - last
[12] = AUClast in CD1 mouse plasma at 2 mg/kg, iv administered as single dose by LC-MS/MS analysis; type: ADME, organism-based; design: dose 2 mg/kg, route intravenous, time 0 - last
[13] = Cmax in CD1 mouse lung at 10 mg/kg, po administered as single dose by LC-MS/MS analysis; type: ADME, organism-based; design: dose 10 mg/kg, route oral
[14] = AUClast in CD1 mouse lung at 10 mg/kg, po administered as single dose by LC-MS/MS analysis; type: ADME, organism-based; settings: in vivo
[15] = Ratio of Cmax in CD1 mouse lung to plasma at 10 mg/kg, po administered as single dose by LC-MS/MS analysis; type: ADME, organism-based; settings: lung and plasma
[16] = Ratio of AUClast in CD1 mouse lung to plasma at 10 mg/kg, po administered as single dose by LC-MS/MS analysis; type: ADME, organism-based; settings: lung and plasma, read-out: Ratio AUC
[17] = Stability in human plasma assessed as parent compound remaining at 1 uM measured after 4 hrs by LC-MS/MS analysis; type: ADME, cell-free; settings: read-out: Stability
[18] = Stability in rat plasma assessed as parent compound remaining at 1 uM measured after 4 hrs by LC-MS/MS analysis; type: ADME, cell-free; settings: read-out: Stability
[19] = Stability in mouse plasma assessed as parent compound remaining at 1 uM measured after 4 hrs by LC-MS/MS analysis; type: ADME, cell-free; settings: read-out: Stability
[20] = Stability in simulated gastric fluid assessed as parent compound remaining at 1 uM measured after 4 hrs at pH 1.2 by LC-MS/MS analysis; type: physicochemical; settings: read-out: Stability
[21] = Stability in simulated intestinal fluid assessed as parent compound remaining at 1 uM measured after 4 hrs at pH 1.2 by LC-MS/MS analysis; type: physicochemical; settings: read-out: Stability
Influenza A virus [22] = test: Antiviral activity against Influenza A virus (A/Denmark/524/2009(H1N1)) pdm09 infected in MDCK cells assessed as protection against virus-induced cell death measured 72 to 96 hrs post-infection by CellTiter-Glo assay; type: functional, organism-based
Influenza A virus H3N2 = test: Antiviral activity against Influenza A virus (A/Fukui/20/2004 (H3N2)) infected in MDCK cells assessed as protection against virus-induced cell death measured 72 to 96 hrs post-infection by CellTiter-Glo assay; type: functional, organism-based
Influenza B virus [23] = test: Antiviral activity against Victoria lineage of Influenza B virus (B/Brisbane/60/2008) infected in MDCK cells assessed as protection against virus-induced cell death measured 72 to 96 hrs post-infection by CellTiter-Glo assay; type: functional, organism-based
Influenza B virus [24] = test: Antiviral activity against Yamagata lineage of Influenza B virus (B/Florida/4/2006) infected in MDCK cells assessed as protection against virus-induced cell death measured 72 to 96 hrs post-infection by CellTiter-Glo assay; type: functional, organism-based
[25] = Oral bioavailability in CD1 mouse assessed as (12aR)-12-[Bis(4-fluorophenyl)methyl]-7-hydroxy-3,4,12,12a-tetrahydro-1H-[1,4]oxazino[3,4-c]pyrido[2,1-f][1,2,4]triazine-6,8-dione level at 15 mg/kg administered as single dose by LC-MS/MS analysis; type: ADME, organism-based; settings: in vivo
[26] = Cmax in CD1 mouse plasma assessed as (12aR)-12-[Bis(4-fluorophenyl)methyl]-7-hydroxy-3,4,12,12a-tetrahydro-1H-[1,4]oxazino[3,4-c]pyrido[2,1-f][1,2,4]triazine-6,8-dione level at 15 mg/kg, po administered as single dose by LC-MS/MS analysis; type: ADME, organism-based; design: dose 15 mg/kg, route oral; settings: in vivo
[27] = AUClast in CD1 mouse plasma assessed as (12aR)-12-[Bis(4-fluorophenyl)methyl]-7-hydroxy-3,4,12,12a-tetrahydro-1H-[1,4]oxazino[3,4-c]pyrido[2,1-f][1,2,4]triazine-6,8-dione level at 15 mg/kg, po administered as single dose by LC-MS/MS analysis; type: ADME, organism-based; design: dose 15 mg/kg, time 0 - last, route oral; settings: in vivo
[28] = Cmax in CD1 mouse lung assessed as (12aR)-12-[Bis(4-fluorophenyl)methyl]-7-hydroxy-3,4,12,12a-tetrahydro-1H-[1,4]oxazino[3,4-c]pyrido[2,1-f][1,2,4]triazine-6,8-dione level at 15 mg/kg, po administered as single dose by LC-MS/MS analysis; type: ADME, organism-based; design: dose 15 mg/kg, route oral; settings: in vivo
[29] = AUClast in CD1 mouse lung assessed as (12aR)-12-[Bis(4-fluorophenyl)methyl]-7-hydroxy-3,4,12,12a-tetrahydro-1H-[1,4]oxazino[3,4-c]pyrido[2,1-f][1,2,4]triazine-6,8-dione level at 15 mg/kg, po administered as single dose by LC-MS/MS analysis; type: ADME, organism-based; settings: in vivo
[30] = Ratio of Cmax in CD1 mouse lung to plasma assessed as (12aR)-12-[Bis(4-fluorophenyl)methyl]-7-hydroxy-3,4,12,12a-tetrahydro-1H-[1,4]oxazino[3,4-c]pyrido[2,1-f][1,2,4]triazine-6,8-dione level at 15 mg/kg, po administered as single dose by LC-MS/MS analysis; type: ADME, organism-based; settings: other tissue
[31] = Ratio of AUClast in CD1 mouse lung to plasma assessed as (12aR)-12-[Bis(4-fluorophenyl)methyl]-7-hydroxy-3,4,12,12a-tetrahydro-1H-[1,4]oxazino[3,4-c]pyrido[2,1-f][1,2,4]triazine-6,8-dione level at 15 mg/kg, po administered as single dose by LC-MS/MS analysis; type: ADME, organism-based; settings: other tissue

Structure (SMILES)	remaining at 4 h, 1 µM [1] [%]	remaining at 4 h, 1 µM [2] [%]	remaining at 4 h, 1 µM [3] [%]	inhibition (HEK-293T [4]) [%]	inhibition (HEK-293T [5]) [%]	EC50 (Influenza A virus [6]) [µM]	CC50 [7] [µM]	selectivity ratio [8]	bioavailability [9] [%]	Cmax [10] [ng/mL]	AUC(0-t) [11] [ng·h/mL]	AUC(0-t) [12] [ng·h/mL]	remaining at 4 h, 1 µM [17] [%]	remaining at 4 h, 1 µM [18] [%]	remaining at 4 h, 1 µM [19] [%]	further results
O=c1ccc2ccc(O)cc2o1 [UMBELLIFERONE]	0.39	2.74	0.83	–	–	–	–	–	–	–	–	–	–	–	–	–
CSc1ccccc1[C@H](c1ccc(F)c(F)c1)N1[C@@H]2COCCN2C(=O)c2c(O)c(=O)ccn21	–	–	–	74.1	22.9	0.0321	16.4	511	–	–	–	–	–	–	–	–
CSc1ccccc1[C@@H](c1ccc(F)c(F)c1)N1[C@@H]2COCCN2C(=O)c2c(O)c(=O)ccn21	–	–	–	13.2	3.1	0.146	9.8	67	–	–	–	–	–	–	–	–
O=C1c2c(O)c(=O)ccn2N([C@H](c2ccccc2)c2ccc(F)c(F)c2)[C@@H]2COCCN12	104	95.4	95.2	83.9	42.2	0.0154	15.9	> 1000	2.7	115	303	2210	85.7	94.4	114	Cmax [13]: 264 ng/g; AUClast [14]: 384 ng·h/g; Kp [15]: 2.3; Kp [16]: 1.3
CC(C)[N+](C)(CCOC(=O)C1c2ccccc2Oc2ccccc21)C(C)C [PROPANTHELINE]	–	–	–	–	–	–	–	–	–	–	–	–	1.28	74.3	1.21	–
O=C1c2c(O)c(=O)ccn2N(C(c2ccc(F)c(F)c2)c2ccc(F)c(F)c2)[C@@H]2COCCN12	–	–	–	80.9	50.2	0.0226	13.8	611	–	–	–	–	–	–	–	–
O=C1c2c(O)c(=O)ccn2N(C(c2ccc(F)cc2)c2ccc(F)cc2)[C@@H]2COCCN12	97	98.3	103	80	45.4	0.0134	13.3	993	22.6	308	1820	1070	–	–	–	Cmax [13]: 935 ng/g; AUClast [14]: 4490 ng·h/g; Kp [15]: 3; Kp [16]: 2.5; remaining at 4 h, 1 µM [20]: 87.3%; remaining at 4 h, 1 µM [21]: 96%
O=C1c2c(O)c(=O)ccn2N([C@@H](c2ccccc2)c2ccc(F)c(F)c2)[C@@H]2COCCN12	113	99.6	92.4	63.2	28.4	0.0225	12.1	538	17.6	332	817	927	90.3	85.8	105	EC50 (Influenza A virus [22]; A/Denmark/524/2009(H1N1) pdm09, MDCK): 0.0036 to 0.0125 µM; EC50 (Influenza A virus H3N2; A/Fukui/20/2004, MDCK): 0.0036 to 0.0125 µM; EC50 (Influenza B virus [23]; B/Brisbane/60/2008, MDCK): 5.1 to 28.3 µM; EC50 (Influenza B virus [24]; B/Florida/4/2006, MDCK): 5.1 to 28.3 µM; Cmax [13]: 501 ng/g; AUClast [14]: 735 ng·h/g; Kp [15]: 1.5; Kp [16]: 0.9
O=C1c2c(O)c(=O)ccn2N([C@@H]2c3ccccc3SCc3c2ccc(F)c3F)[C@@H]2COCCN12 [BALOXAVIR]	93.5	85	87.7	99.7	99.6	0.0009	5.6	> 1000	3	11.9	79.9	354	89.9	73.9	45.4	Activity (Influenza A virus [22]): Active; Activity (Influenza A virus H3N2): Active; Activity (Influenza B virus [23]): Active; Activity (Influenza B virus [24]): Active
O=C(O)CCCc1ccc(N(CCCl)CCCl)cc1 [CHLORAMBUCIL]	–	–	–	–	–	–	–	–	–	–	–	–	–	–	–	remaining at 4 h, 1 µM [20]: 97.2%; remaining at 4 h, 1 µM [21]: 0.04%
COC(=O)OCOc1c2n(ccc1=O)N(C(c1ccc(F)cc1)c1ccc(F)cc1)[C@@H]1COCCN1C2=O	–	–	–	–	–	–	–	–	–	–	–	–	–	–	–	F [25]: 39.6%; Cmax [26]: 647 ng/mL; AUClast [27]: 3186 ng·h/mL; Cmax [28]: 708 ng/g; AUClast [29]: 3302 ng·h/g; Ratio [30]: 1.1; Ratio AUC [31]: 1; remaining at 4 h, 1 µM [20]: 98.4%; remaining at 4 h, 1 µM [21]: 99.7%
